From patent US7306811B2, “Fungicide composition based on halosulphone in particular for packaging” (priority 2000, dated 2007)

Tested on: six mushroom strains: Aspergillus Sydowi, Aspergillus Versicolor, Cladosporium Herbarum, Cladosporium Sphaerospernum, Penicillium Citrinum and Penicillium …
Assay: Development of moulds on treated paper, standard AFNOR X 41 517
Conditions: overall judgement of the paper mould test
Procedure: The following test was carried out. Two surfaces of a woodless industrial paper weighing 80 g/m^2 dry, having a 1-minute COBB value of 25 to 35, were brought into contact with six mushroom strains for 14 days under the quality test conditions of the standard AFNOR X 41 517: the strains used were Aspergillus Sydowi, Aspergillus Versicolor, Cladosporium Herbarum, Cladosporium Sphaerospernum, Penicillium Citrinum and Penicillium Corylophilum. At the end of this period, visual assessment of the development of moulds was noted using a code from 0 to 6+, the value 6+ being allocated to the untreated control, while the notation 0 corresponded to no development of the seeded moulds.
The fungicide solutions used in this test were prepared in the same way as mentioned above. With regard to the fungicide T1, chlorothalonil was mixed in water. The fungicidal product T2 was prepared on the basis of di-iodo-ethyl-p-tolyl-sulphone only. The fungicide T3 was prepared from a mixture of chlorotalonyl and a zinc pyrithione. The fungicide T4 was prepared from a mixture of Amical (di-iodomethyl-p-tolyl-sulphone, and zinc pyrithione. Finally the fungicide T5 corresponds to the mixture given by way of example above according to the invention, i.e. a mixture of chlorotalonyl and di-iodo-methyl-p-tolyl-sulphone or Amical.

| Structure (SMILES) | fungicidal quality in words, as seen from the Table |
| --- | --- |
| N#Cc1c(Cl)c(Cl)c(Cl)c(C#N)c1Cl [Chlorothalonil alone T1, 2,4,5,6 tetrachloro-1,3 benzene dicarbonitrile] | average fungicide |
| Cc1ccc(S(=O)(=O)C(I)I)cc1 [DIMPTS alone T2, di-iodomethyl-p-tolyl-sulphone] | excellent fungicide |
